Target: T1, glucose-6-phosphatase system (Rattus norvegicus, UniProt F7EWB7)
T1 construct: from tissue; host or cells: liver microsomes, male Wistar rats
T1 sequence (F7EWB7 1-429): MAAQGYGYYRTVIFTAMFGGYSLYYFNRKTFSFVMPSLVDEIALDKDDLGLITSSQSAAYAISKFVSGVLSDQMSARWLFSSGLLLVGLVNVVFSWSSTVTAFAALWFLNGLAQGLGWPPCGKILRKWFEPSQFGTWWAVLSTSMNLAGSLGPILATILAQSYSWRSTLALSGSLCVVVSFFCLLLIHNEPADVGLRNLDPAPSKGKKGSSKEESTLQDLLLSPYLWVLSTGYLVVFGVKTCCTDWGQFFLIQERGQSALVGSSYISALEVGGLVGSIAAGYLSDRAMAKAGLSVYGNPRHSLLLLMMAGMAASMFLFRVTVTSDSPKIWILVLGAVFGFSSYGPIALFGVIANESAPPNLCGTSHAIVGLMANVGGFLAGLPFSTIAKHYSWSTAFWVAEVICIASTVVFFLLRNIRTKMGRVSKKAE
Assay: enzyme test using liver microsomes: phosphate liberated from glucose-6-phosphate
Format: biochemical, male Wistar rats
Settings: rat liver microsome fraction; glucose-6-phosphate 1 mmol/l; HEPES pH 7.0; room temperature, 20 minutes
Method: The effect of the novel compounds on the glucose-6-phosphatase system was investigated in an enzyme test using liver microsomes.
0.1 ml of test mixture contained glucose-6-phosphate (1mmol/l), the test substance, 0.1 mg of microsome fraction and 100 mmol/l HEPES buffer (4-(2-hydroxyethyl)piperazine-1-ethanesulfonic acid), pH 7.0. The reaction was started by adding the enzyme. After proceeding at room temperature for 20 minutes, the reaction was stopped by adding 0.2 ml of phosphate reagent. The sample was incubated at 37° C. for 30 minutes and the absorption (A) of the blue color was then measured at 570 nm.

Structure (SMILES)	IC50 [nM]
CS(=O)(=O)NC(=O)C1(OCC2CC2c2ccc(Cl)cc2)CC(O)C(O)C(OC(=O)C=C(c2ccccc2)n2cnc3ccccc32)C1 (stereo not shown) [Compound 4]	20
O=C(/C=C(/c1ccccc1)n1cnc2ccccc21)O[C@@H]1C[C@](OC[C@@H]2C[C@@H]2c2ccc(Cl)cc2)(C(=O)NS(=O)(=O)c2ccc3ccccc3c2)C[C@@H](O)[C@H]1O [Compound 9]	300
O=C(/C=C(/c1ccccc1)n1cnc2ccccc21)O[C@@H]1C[C@](OC[C@@H]2C[C@@H]2c2ccc(Cl)cc2)(c2nnn[nH]2)C[C@@H](O)[C@H]1O [Compound 19]	800

System: glucose-6-phosphatase
Assay: not given
Settings: literature statement; cited from earlier work

Structure (SMILES)	inhibition of glucose-6-phosphatase (in words)
S=C=Nc1ccccc1C=Cc1ccccc1N=C=S [2,2'-diisothiocyanatostilbene]	non-specific inhibitors
O=C(CCc1ccc(O)cc1)c1c(O)cc(O)cc1O[C@@H]1O[C@H](CO)[C@@H](O)[C@H](O)[C@H]1O [phlorrhizin]	non-specific inhibitors
O=C(O)c1cc(SSc2ccc([N+](=O)[O-])c(C(=O)O)c2)ccc1[N+](=O)[O-] [5,5'-dithiobis-2-nitrobenzoic acid]	non-specific inhibitors
CC(=O)Oc1ccccc1C=Cc1ccccc1N=C=S [2-isothiocyanato-2'-acetoxystilbene]	non-specific inhibitors
